Laboratory results: ChEMBL document CHEMBL4308841, “Synthesis, in vitro antiproliferative activity, and kinase inhibitory effects of pyrazole-containing diarylureas and diarylamides” (Eur J Med Chem, 2018)

Experiments:
[1] = system: SW-620; experiment: Growth inhibition of human SW620 cells assessed as cell growth at 100 uM incubated for 48 hrs by sulforhodamine B assay relative to control; type: functional; settings: SW-620, 48 h, read-out: Activity
[2] = system: 786-0; experiment: Growth inhibition of human 786-0 cells assessed as cell growth at 100 uM incubated for 48 hrs by sulforhodamine B assay relative to control; type: functional; settings: 786-0, 48 h, read-out: Activity
[3] = system: 786-0; experiment: Growth inhibition of human 786-0 cells assessed as cell growth at 1 uM incubated for 48 hrs by sulforhodamine B assay relative to control; type: functional; settings: 786-0, 48 h, read-out: Activity
[4] = system: NCI-H522; experiment: Growth inhibition of human NCI-H522 cells incubated for 48 hrs by sulforhodamine B assay; type: functional, cell-based; settings: NCI-H522, 48 h
[5] = system: COLO 205; experiment: Growth inhibition of human COLO205 cells assessed as cell growth at 100 uM incubated for 48 hrs by sulforhodamine B assay relative to control; type: functional; settings: COLO 205, 48 h, read-out: Activity
[6] = system: SF-295; experiment: Growth inhibition of human SF295 cells assessed as cell growth at 0.1 uM incubated for 48 hrs by sulforhodamine B assay relative to control; type: functional; settings: SF-295, 48 h, read-out: Activity
[7] = system: HCC 2998; experiment: Growth inhibition of human HCC2998 cells incubated for 48 hrs by sulforhodamine B assay; type: functional, cell-based; settings: HCC 2998, 48 h
[8] = system: ACHN; experiment: Growth inhibition of human ACHN cells assessed as cell growth at 100 uM incubated for 48 hrs by sulforhodamine B assay relative to control; type: functional; settings: read-out: Activity
[9] = system: HT-29; experiment: Growth inhibition of human HT-29 cells assessed as cell growth at 100 uM incubated for 48 hrs by sulforhodamine B assay relative to control; type: functional; settings: HT-29, 48 h, read-out: Activity
[10] = system: HCT-15; experiment: Growth inhibition of human HCT15 cells incubated for 48 hrs by sulforhodamine B assay; type: functional, cell-based; settings: HCT-15, 48 h
[11] = system: NCI/ADR-RES; experiment: Growth inhibition of human NCI/ADR-RES cells assessed as cell growth at 100 uM incubated for 48 hrs by sulforhodamine B assay relative to control; type: functional; settings: read-out: Activity
[12] = system: HT-29; experiment: Growth inhibition of human HT-29 cells assessed as cell growth at 10 uM incubated for 48 hrs by sulforhodamine B assay relative to control; type: functional; settings: HT-29, 48 h, read-out: Activity
[13] = system: 786-0; experiment: Growth inhibition of human 786-0 cells assessed as cell growth at 0.01 uM incubated for 48 hrs by sulforhodamine B assay relative to control; type: functional; settings: 786-0, 48 h, read-out: Activity
[14] = system: SK-MEL-5; experiment: Growth inhibition of human SK-MEL-5 cells assessed as cell growth at 1 uM incubated for 48 hrs by sulforhodamine B assay relative to control; type: functional; settings: SK-MEL-5, 48 h, read-out: Activity
[15] = system: HCC 2998; experiment: Growth inhibition of human HCC2998 cells assessed as cell growth at 0.1 uM incubated for 48 hrs by sulforhodamine B assay relative to control; type: functional; settings: HCC 2998, 48 h, read-out: Activity
[16] = system: SK-OV-3; experiment: Growth inhibition of human SKOV3 cells assessed as cell growth at 0.1 uM incubated for 48 hrs by sulforhodamine B assay relative to control; type: functional; settings: SK-OV-3, 48 h, read-out: Activity
[17] = system: A498; experiment: Growth inhibition of human A498 cells assessed as cell growth at 0.1 uM incubated for 48 hrs by sulforhodamine B assay relative to control; type: functional; settings: A498, 48 h, read-out: Activity
[18] = system: UACC-62; experiment: Growth inhibition of human UACC62 cells incubated for 48 hrs by sulforhodamine B assay; type: functional, cell-based; settings: UACC-62, 48 h
[19] = system: NCI-H23; experiment: Growth inhibition of human NCI-H23 cells assessed as cell growth at 0.1 uM incubated for 48 hrs by sulforhodamine B assay relative to control; type: functional; settings: NCI-H23, 48 h, read-out: Activity
[20] = system: PC-3; experiment: Growth inhibition of human PC3 cells assessed as cell growth at 100 uM incubated for 48 hrs by sulforhodamine B assay relative to control; type: functional; settings: PC-3, 48 h, read-out: Activity
[21] = system: RPMI-8226; experiment: Growth inhibition of human RPMI8226 cells incubated for 48 hrs by sulforhodamine B assay; type: functional, cell-based; settings: RPMI-8226, 48 h
[22] = system: LOX IMVI; experiment: Growth inhibition of human LOXIMVI cells assessed as cell growth at 0.1 uM incubated for 48 hrs by sulforhodamine B assay relative to control; type: functional; settings: read-out: Activity
[23] = system: SF-268; experiment: Growth inhibition of human SF268 cells incubated for 48 hrs by sulforhodamine B assay; type: functional, cell-based; settings: SF-268, 48 h
[24] = system: Malme-3M; experiment: Growth inhibition of human MALME-3M cells assessed as cell growth at 1 uM incubated for 48 hrs by sulforhodamine B assay relative to control; type: functional; settings: read-out: Activity
[25] = system: UACC-257; experiment: Growth inhibition of human UACC257 cells assessed as cell growth at 100 uM incubated for 48 hrs by sulforhodamine B assay relative to control; type: functional; settings: UACC-257, 48 h, read-out: Activity
[26] = system: SN12C; experiment: Growth inhibition of human SN12C cells incubated for 48 hrs by sulforhodamine B assay; type: functional, cell-based
[27] = system: SNB-75; experiment: Growth inhibition of human SNB75 cells assessed as cell growth at 0.01 uM incubated for 48 hrs by sulforhodamine B assay relative to control; type: functional; settings: SNB-75, 48 h, read-out: Activity
[28] = system: U-251; experiment: Growth inhibition of human U251 cells incubated for 48 hrs by sulforhodamine B assay; type: functional, cell-based; settings: U-251, 48 h
[29] = read-out: LC50 (the source's name)
[30] = read-out: pLC50 (the source's name) (converted)

COc1cc(Cl)cc(-c2nn(-c3cccc(NC(=O)Nc4ccc(Cl)c(C(F)(F)F)c4)c3)cc2-c2ccncc2)c1
growth at 100 µM [1]: -58% | growth at 100 µM [2]: -81% | growth at 1 µM [3]: 74% | GI50 ([4]; read-out: GI50): 418 nM | CC50 [4, 29]: 9.74 µM | TGI ([4]; read-out: TGI): 25 µM | GI50 ([4]; read-out: pGI50 (converted)): 417 nM | CC50 [4, 30]: 9.77 µM | TGI ([4]; read-out: pTGI (converted)): 2.51 µM | growth at 100 µM [5]: -79% | growth at 0.1 µM [6]: 98% | GI50 ([7]; read-out: GI50): 2910 nM | CC50 [7, 29]: 4.41 µM | TGI ([7]; read-out: TGI): 90.2 µM | GI50 ([7]; read-out: pGI50 (converted)): 2880 nM | CC50 [7, 30]: 43.7 µM | TGI ([7]; read-out: pTGI (converted)): 9.12 µM | growth at 100 µM [8]: -31% | growth at 100 µM [9]: -84% | GI50 ([10]; read-out: GI50): 493 nM | CC50 [10, 29]: 6.46 µM | TGI ([10]; read-out: TGI): 24 µM | GI50 ([10]; read-out: pGI50 (converted)): 490 nM | CC50 [10, 30]: 8.51 µM | TGI ([10]; read-out: pTGI (converted)): 2.4 µM | growth at 100 µM [11]: -15% | growth at 10 µM [12]: 5.57% | growth at 0.01 µM [13]: 96% | growth at 1 µM [14]: 83% | growth at 0.1 µM [15]: 94% | growth at 0.1 µM [16]: 100% | growth at 0.1 µM [17]: 59% | IC50 [18]: 1270 nM | GI50 ([18]; read-out: GI50): 1270 nM | CC50 [18, 29]: 9.51 µM | TGI ([18]; read-out: TGI): 35.4 µM | GI50 ([18]; read-out: pGI50 (converted)): 1290 nM | CC50 [18, 30]: 9.77 µM | TGI ([18]; read-out: pTGI (converted)): 4.9 µM | growth at 0.1 µM [19]: 90% | growth at 100 µM [20]: -15% | IC50 [21]: 400 nM | GI50 ([21]; read-out: GI50): 402 nM | CC50 [21, 29]: > 100 µM | TGI ([21]; read-out: TGI): 20.7 µM | GI50 ([21]; read-out: pGI50 (converted)): 398 nM | CC50 [21, 30]: > 100 µM | TGI ([21]; read-out: pTGI (converted)): 2.09 µM | growth at 0.1 µM [22]: 97% | GI50 ([23]; read-out: GI50): 2550 nM | CC50 [23, 29]: 7.96 µM | TGI ([23]; read-out: TGI): 12.1 µM | GI50 ([23]; read-out: pGI50 (converted)): 2630 nM | CC50 [23, 30]: 79.4 µM | TGI ([23]; read-out: pTGI (converted)): 12 µM | growth at 1 µM [24]: 67% | growth at 100 µM [25]: -86% | GI50 ([26]; read-out: GI50): 1560 nM | LC50 ([26]; read-out: LC50): > 100 µM | TGI ([26]; read-out: TGI): 82.1 µM | GI50 ([26]; read-out: pGI50 (converted)): 1550 nM | LC50 ([26]; read-out: pLC50 (converted)): > 100 µM | TGI ([26]; read-out: pTGI (converted)): 8.13 µM | growth at 0.01 µM [27]: 57% | IC50 [28]: 730 nM | GI50 ([28]; read-out: GI50): 729 nM | CC50 [28, 29]: 5 µM | TGI ([28]; read-out: TGI): 21.1 µM | GI50 ([28]; read-out: pGI50 (converted)): 724 nM | CC50 [28, 30]: 5.01 µM | TGI ([28]; read-out: pTGI (converted)): 2.09 µM
